Measurements reported in patent publication US12139488B2, “Pyrido[3,2-d]pyrimidine compounds uses thereof for treating a proliferative disease” (Universite de Montreal, priority 2021, dated 2024).
Where two headings read alike, the source gives them in different places.

Key:
Type in all cases: cell-based, human
[1] = test system: pERK in NCIH2087 cells (BRAF L597V; KRAS Q61K); assay: Phospho-ERK inhibition (AlphaLISA), NCIH2087; conditions: for NCIH2087 pERK % Ymin: NCIH2087, value in parentheses
Experimental: (§1) All cancer cell lines (A375, A101D, A2058, RKO, HT29 SK-MEL 30, IPC298, HepG2, HCT-116, Lovo, SWV620, SW480, NCI-H358, NCI-H2122, Calu-6, NCIH2087, NCIH1755, NCIH1666 and Mewo) were obtained from ATCC and cultured in RPMI-1640 medium (Gibco) supplemented with 5% heat inactivated fetal bovine serum (FBS, Wisent) at 37° C. under 5% CO2. Cells were maintained in T175 flasks (Greiner). They were passaged by removing the culture medium, washing once in 10 mL of room temperature Phosphate Buffered Saline (PBS; Wisent) and incubating at 37° C. with 2 mL of 0.05% Trypsin (Thermo-Fisher). Trypsin was then inactivated by adding complete growth medium and the cells were then replated in a T175 culture dish at the appropriate dilution. All cell lines were routinely tested for mycoplasma contamination. Tissue type and mutational status of each cell line can be found in Table B.
AlphaLISA® SureFire® Ultra™ p-ERK 1/2 (Thr202/Tyr204) analysis was conducted on cells plated in 100 μL of complete RPMI-1640 growth medium in 96-well flat-bottomed transparent dishes (Costar) at a density indicated in Table C. Cells were maintained overnight at 37° C. under 5% CO2 before treatment with compounds' dilution series for one hour. The cell density in cells/cm^2 corresponds to cell number divided by the area of one well of a 96-well plate ([…]).
In a dilution series 100 μL/well of test substance dilution prepared in complete RPMI-1640 growth media was added to the cells. The dilution series is selected so that ten concentrations cover a range from 10 μM to 0.33 nM. If necessary the initial concentration of 10 μM is increased to 100 μM or lowered to 1 μM (as in the case of A375 and H1666 cells, which are generally more sensitive to the compounds) and further dilution is carried out accordingly. The final concentration of DMSO in the assay is set at 0.5%.
After treatment, media was removed and cells were lysed in 50 μL of 1× AlphaScreen Ultra Lysis Buffer (Perkin Elmer). The AlphaLISA® SureFire® Ultra™ p-ERK 1/2 (Thr202/Tyr2O4) (PerkinElmer) reactions were performed with 5 μL of cell lysate according to the manufacturer's specifications in 384-well proxyplates (Perkin Elmer) followed by overnight incubation of the reactions at room temperature in a humidified chamber. After completion of the reactions, the signals were recorded on an EnVision plate reader (Perkin Elmer) using built in AlphaLISA® settings.
The effect of each compound dilution on the pERK signal was expressed in % inhibition and calculated as follows. An internal 100% inhibition control ([…] trametinib, cat #HY-10999; MedChem Express; CAS #871700-17-3) was included in each plate and used as a measure of pERK background. First, the value obtained for trametinib was subtracted from each data point. The average of DMSO (vehicle) controls (set as 0% inhibition) was established and used to calculate % inhibition: % inhibition=100*(1-((pERK signalcompound)/(pERK signalDMSO)))
(§2) The ability of each compound to inhibit pERK signal was expressed as an IC50 value obtained by plotting the inhibition values for each data point of a dilution series and fitting the obtained curves using a log(agonist) versus response-variable slope (four parameters) function using GraphPadPrism (V7.0) or Dotmatics Screening Ultra platform.
When present, paradoxical pERK induction is inferred from the negative % inhibition values observed in the pERK IC50 curves of a compound.

[2] = test system: HT29 cells (BRAF V600E); assay: Proliferation inhibition (CellTiter-Glo), HT29; conditions: HT-29, 3 days, read-out: HT-29 Prolif. EC50
Experimental: as §1
(§3) CellTiter-Glo® viability analysis was conducted on cells plated in 100 μL of complete RPMI-1640 growth medium in 96-well flat-bottomed white opaque plates (Greiner or Croning) at a density indicated in Table E (for each CCL, number of cells plated per well of a 96-well plate to perform the CellTiter-Glo® cell viability assay). The cell density in cells/cm^2 would correspond to cell number divided by the area of one well of a 96-well plate (0.32 cm^2). […]
(§4) After 3 days of incubation, the growth media were removed by aspiration and 60 μL of diluted CellTiter-Glo® reagent (10 μL CellTiter-Glo® reagent+50 μL of PBS) was added to each well. […] Luminescence signals were then acquired on a Synergy Neo2 plate reader (Biotek).
(§5) The effect of each compound dilution on the proliferation of cancer cell lines was expressed in % inhibition and calculated as follows. […]
as §2, with “proliferation” for “pERK signal”, “a EC50” for “an IC50”, “effect” for “inhibition”

[3] = test system: SW620 cells (KRAS-G12V); assay: Proliferation inhibition (CellTiter-Glo), SW620; conditions: SW620, 3 days, read-out: SW620 Prolif. EC50
Experimental: as §1, §3, §4, §5
as §2, with “proliferation” for “pERK signal”, “a EC50” for “an IC50”, “effect” for “inhibition”

[4] = test system: SW480 cells (KRAS G12D); assay: Proliferation inhibition (CellTiter-Glo), SW480; conditions: SW480, 3 days, read-out: SW480 Prolif. EC50
Experimental: as §1, §3, §4, §5
as §2, with “proliferation” for “pERK signal”, “a EC50” for “an IC50”, “effect” for “inhibition”

[5] = test system: Mewo cells (NF1 LOF); assay: Proliferation inhibition (CellTiter-Glo), Mewo; conditions: 3 days, read-out: Mewo Prolif. EC50
Experimental: as §1, §3, §4, §5
as §2, with “proliferation” for “pERK signal”, “a EC50” for “an IC50”, “effect” for “inhibition”

[6] = test system: NCIH1755 cells (BRAF G469A); assay: Proliferation inhibition (CellTiter-Glo), NCIH1755; conditions: NCIH1755, 3 days, read-out: NCIH1755 Prolif. EC50
Experimental: as §1, §3, §4, §5
as §2, with “proliferation” for “pERK signal”, “a EC50” for “an IC50”, “effect” for “inhibition”

Row | SMILES | IC50 ([1]; Homo sapiens, NCI-H2087) | NCIH2087 pERK % Ymin [1] | EC50 ([2]; Homo sapiens, 72 h) | EC50 ([3]; Homo sapiens, SW-620, 72 h) | EC50 ([4]; Homo sapiens, 72 h) | EC50 ([5]; Homo sapiens, 72 h) | EC50 ([6]; Homo sapiens, NCI-H1755, 72 h) | IC50 ([1]; NCIH2087) | EC50 [2] | EC50 [3] | EC50 [4] | EC50 [5] | EC50 [6]
1 | Cc1ccc2c(Nc3cccc(Cl)c3F)nccc2c1NC(=O)c1csc2c(N)ncnc12 [Belvarafenib, reference compound] | < 30 nM | 6% | < 30 nM | 300 to 3000 nM | 300 to 3000 nM | 300 to 3000 nM | > 3000 nM | – | – | – | – | – | –
2 | Nc1cccc2c1ncn2-c1ccc2ncnc(Nc3c(F)ccc(NS(=O)(=O)c4cccc(Cl)c4Cl)c3F)c2n1 [Example 99] | – | 15% | – | – | – | – | – | < 30 nM | < 30 nM | 300 to 3000 nM | 300 to 3000 nM | < 30 nM | < 30 nM
3 | CC1(O)CCN(c2cccc3c2ncn3-c2ccc3ncnc(Nc4c(F)ccc(NS(=O)(=O)c5cccc(Cl)c5Cl)c4F)c3n2)CC1 [Example 524] | – | 3% | – | – | – | – | – | < 30 nM | < 30 nM | 300 to 3000 nM | 300 to 3000 nM | < 30 nM | 300 to 3000 nM
